# Measured values taken from patent publication US12285421B2, “Uses of a 5-HT4 receptor agonist” (SUVEN LIFE SCIENCES LIMITED, priority 2018, dated 2025).
# What was measured:
# [1] = tested on: Male Wistar rats; experiment: Dominant Submissive Model (DSM) for depression; assay type: in vivo, rat; conditions: 3 mg/kg, p.o., submissive rats treated, significance in 5th week (p<0.05), FIG. 4
# Description: A total of 220 male Wistar rats (110 pairs) of ˜150-200 g weight were selected. The animals were randomized on the basis of body weight and matched for body weight, pair wise. The pairs were habituated to the testing apparatus and milk for a period of 5 min per day for 5 days (first week). The animals were housed such that these pairs met only during the trial time. Each pair was given equal access to milk containing 9% sucrose in a beaker (10 mL), which was placed in an opening on the floor at the midpoint of the tunnel. During the second week, time spent in drinking the milk by a pair of rats was recorded and scored for a period of 5 min. Once the 5 min period was over, the rat pair was returned to their respective home cages.
# Pairs, which met the above criteria were selected and randomized based on the dominance levels. Both the dominant and submissive animals of the control group were treated with vehicle (sterile water, 4 mL/kg, p.o.). […] During the test period (three weeks), time spent in drinking the milk was recorded for each animal of a pair for a period of 5 min. […] Dominance level (the average of difference in daily drinking score between the dominant and submissive partners during the testing period) was analyzed using repeated measure one way ANOVA followed by Tukey's test against its dominance level during 2nd week (FIG. 4).
# [2] = tested on: Male Wistar rats; experiment: Object recognition task (NORT), MK-801 induced cognitive impairment; conditions: 0.3 and 1 mg/kg, p.o., FIG. 3
# Description: During the familiarization phase, (T1), the rats were placed individually in the arena for 3 minutes, in which two identical objects (a1 and a2) were positioned 10 cm from the wall. Ninety minutes after T1, choice phase was performed. Rats were placed in the same arena as they were placed in T1 trial. During the choice phase (T2) rats were allowed to explore the arena for 3 minutes in presence of a copy of familiar object (a3) and one novel object (b).
# [3] = tested on: serotonin; experiment: In vivo brain microdialysis, serotonin modulation in ventral hippocampus; conditions: Compound-1 3 mg/kg, p.o. alone, rat ventral hippocampus
# Description: Incorrect probe placement was considered as criteria to reject the data from animal.
# [4] = tested on: ovariectomized female Wistar rats; experiment: Object recognition task, in vivo model for dementia due to menopause; design: species or system rat; conditions: ~12 months after surgery, dosed 60 min prior to trial-1, FIG. 1
# Description: Bilateral ovariectomy surgery was carried out in 7-8 weeks old female rats. Briefly, animals were anesthetized using Avertin (2,2,2-tri bromo ethanol) at 150 mg/kg, i.p. and were lay down on the surgery table. A midline incision was given on the dorsal region below the rib cage and 1 cm lateral to the either side of midline, a small incision was given on fascia to locate the adipose fat supporting the ovaries. By slowly pulling out the fat tissue, the ovary was identified and excised following the uterine horn ligation with silk sutures. Fascia was also covered with sutures and the similar procedure was repeated on the other side. Superficial skin layers were sutured and gentamicin (15 mg/kg, s.c.) was given as antibiotic and meloxicam (1 mg/kg, i.m.) as analgesic with povidone iodine applied on superficial skin layers at last. Episodic memory which is a memory of autobiographical events contextual in relation to time, place etc. was assessed ˜12 months after the surgery using object recognition task. On experiment day 1, rats were transferred to experimental room for acclimatization. On experiment day 2, all groups of animals were habituated to their respective test arenas for a period of 30 min prior to trial-1. […] Discriminative index (b−a3/b+a3) was calculated and compared among the groups.
structure (smiles),measurement,setting,value
"COCCCN1CCC(c2nnc(-c3nn(C(C)C)c4ccccc34)o2)CC1.O=C(O)C(=O)O [Compound-1, Isopropyl-3-{5-[1-(3-methoxypropyl)piperidin-4-yl]-[1,3,4]oxadiazol-2-yl}-1H-indazole oxalate]",dominance levels,[1],decreased
same,MK-801 induced memory deficit,[2],reversed
same,increase in hippocampal serotonin levels above pre-dose levels,[3],22%
same,object recognition memory deficits,[4],reversed
